In patent publication US5961892A, “Polyalkoxylated naphthopyrans” (PPG Industries Ohio, Inc., priority 1998, dated 1999):

Columns and labels:
[1] = Photochromic response of test squares on optical bench (sensitivity, saturation optical density, bleach rate); format: physicochemical; settings: for ΔOD@ Saturation: UV exposure continued for 15 minutes; for ΔOD@ Saturation / ΔOD/MIN Sensitivity: 72° F. (22.2° C.); for ΔOD/MIN Sensitivity: first five (5) seconds of UV exposure, expressed per minute, 0.15 to 0.20 mW/cm2; for Bleach Rate (T 1/2): time for absorbance of activated form to reach one half the highest absorbance at room temperature (72° F., 22.2° C.) after removal of activating light; for decrease in T 1/2 versus corresponding Comparative Example: % less than corresponding CE (Example 1 vs CE1; average of Examples 2 and 4 vs CE2; Example 3 vs CE3)
Procedure: (§1) Testing was done with the photochromic compounds described in Examples 1 through 4 and Comparative Examples 1 through 3 in the following manner. A quantity of photochromic compound calculated to yield a 1.5×10-3 molal solution was added to a flask containing 50 grams of a monomer blend of 4 parts ethoxylated bisphenol A dimethacrylate (BPA 2EO DMA), 1 part poly(ethylene glycol) 600 dimethacrylate, and 0.033 weight percent 2,2'-azobis(2-methyl propionitrile) (AIBN). The photochromic compound was dissolved into the monomer blend by stirring and gentle heating, if necessary. After a clear solution was obtained, it was poured into a flat sheet mold having the interior dimensions of 2.2 mm×6 inches (15.24 cm)×6 inches (15.24 cm). The mold was sealed and placed in a horizontal air flow, programmable oven programmed to increase the temperature from 40° C. to 95° C. over a 5 hour interval, hold the temperature at 95° C. for 3 hours, lower it to 60° C. over a 2 hour interval and then hold it at 60° C. for 16 hours. After the mold was opened, the polymer sheet was cut using a diamond blade saw into 2 inch (5.1 centimeters) test squares.
The photochromic test squares prepared in Part A were tested for photochromic response on an optical bench. Prior to testing on the optical bench, the photochromic test squares were conditioned, i.e., exposed to 365 nanometer ultraviolet light for about 15 minutes to activate the photochromic compounds and then placed in a 76° C. oven for about 15 minutes to bleach or inactivate the photochromic compounds. The test squares were then cooled to room temperature, exposed to fluorescent room lighting for at least 2 hours and then kept covered for at least 2 hours prior to testing on an optical bench maintained at 72° F. (22.2° C.). The bench was fitted with a 250 watt Xenon arc lamp, a remote controlled shutter, a copper sulfate bath acting as a heat sink for the arc lamp, a Schott WG-320 nm cut-off filter which removes short wavelength radiation; neutral density filter(s) and a sample holder in which the square to be tested was inserted. The power output of the optical bench, i.e., the dosage of light that the sample lens would be exposed to, was calibrated with a photochromic test square used as a reference standard. […] The UV-A detector was placed into the sample holder and the light output was measured. Adjustments to the power output were made by increasing or decreasing the lamp wattage or by adding or removing neutral density filters in the light path.
A monitoring, collimated beam of light from a tungsten lamp was passed through the square at a small angle (approximately 30°) normal to the square. After passing through the square, the light from the tungsten lamp was directed to a detector through Spectral Energy Corp. GM-200 monochromator set at the previously determined visible lambda max of the photochromic compound being measured. The output signals from the detector were processed by a radiometer.
Change in optical density (ΔOD) was determined by inserting a test square in the bleached state into the sample holder, adjusting the transmittance scale to 100%, opening the shutter from the Xenon lamp to provide ultraviolet radiation to change the test square from the bleached state to an activated (i.e., darkened) state, measuring the transmittance in the activated state, and calculating the change in optical density according to the formula: ΔOD=log(100/% Ta), where % Ta is the percent transmittance in the activated state and the logarithm is to the base 10.
The ΔOD/Min, which represents the sensitivity of the photochromic compound's response to UV light, was measured over the first five (5) seconds of UV exposure, then expressed on a per minute basis. The saturation optical density (ΔOD@ Saturation) was taken under identical conditions as the ΔOD/Min, except UV exposure was continued for 15 minutes. […]

[2] = UV-Visible absorption (lambda max) of photochromic test square polymerizates in Varian Cary 3 UV-Visible spectrophotometer; format: physicochemical; settings: 1.5×10-3 molal; for (λ) max (VIS): maximum absorption of the activated (colored) form in the visible spectrum, test square; for (λ) max (UV): wavelength in the ultraviolet range closest to the visible spectrum at which absorption occurs, test square of BPA 2EO DMA/poly(ethylene glycol) 600 dimethacrylate
Procedure: as §1
The ΔOD/Min, which represents the sensitivity of the photochromic compound's response to UV light, was measured over the first five (5) seconds of UV exposure, then expressed on a per minute basis. The saturation optical density (ΔOD@ Saturation) was taken under identical conditions as the ΔOD/Min, except UV exposure was continued for 15 minutes. The lambda max (Vis) is the wavelength in nanometers (nm) in the visible spectrum at which the maximum absorption of the activated (colored) form of the photochromic compound in a test square occurs. The lambda max (Vis) wavelength was determined by testing the photochromic test square polymerizates of Part A in a Varian Cary 3 UV-Visible spectrophotometer. The lambda (λ) max (UV) is the wavelength in nanometers in the ultraviolet range closest to the visible spectrum at which the absorption of the photochromic compound occurs. This absorption was also determined with the same spectrophotometer. The Bleach Rate (T 1/2) is the time interval in seconds for the absorbance of the activated form of the photochromic compound in the test squares to reach one half the highest absorbance at room temperature (72° F., 22.2° C.) after removal of the source of activating light.

Compound	ΔOD@ Saturation [1]	ΔOD/MIN Sensitivity [1]	Bleach Rate (T 1/2) [1]	(λ) max (VIS) [2]	(λ) max (UV) [2]	decrease in T 1/2 versus corresponding Comparative Example [1]	Sensitivity, units less than corresponding Comparative Example ([1]; Example 1 versus Comparative Example 1)
COC(=O)c1c2c(c3ccccc3c1-c1ccccc1)OC(c1ccccc1)(c1ccccc1)C=C2 [CE2, 2,2-diphenyl-5-methoxycarbonyl-6-phenyl-2H-naphtho[1,2-b]pyran, reference compound]	0.80	0.28 ΔOD/MIN	3.83 min	486 nm	348 nm	–	–
COCCOCCOCCOC(=O)c1c2c(c3ccccc3c1-c1ccccc1)OC(c1ccccc1)(c1ccccc1)C=C2 [Example 4, 2,2-diphenyl-5-(2-(2-(2-methoxyethoxy)ethoxy)ethoxy-carbonyl)-6-phenyl-2H-naphtho[1,2-b]pyran]	0.67	0.28 ΔOD/MIN	2.75 min	486 nm	348 nm	–	–
COCCOCCOCCOC(=O)c1c2c(c3ccccc3c1C)OC(c1ccccc1)(c1ccccc1)C=C2 [Example 3, 2,2-diphenyl-5-(2-(2-(2-methoxyethoxy)ethoxy)ethoxycarbonyl)-6-methyl-2H-naphtho[1,2b]pyran]	0.86	0.24 ΔOD/MIN	4.5 min	475 nm	349 nm	42%	–
2,2-bis(4-methoxyphenyl)-5-methoxycarbonyl-6-methoxy(polyethoxy)-2H-naphtho[1,2-b]pyran [Example 1]	0.48	0.19 ΔOD/MIN	1.72 min	511 nm	353 nm	24%	more than 0.02 units
COCCOCCOC(=O)c1c2c(c3ccccc3c1-c1ccccc1)OC(c1ccccc1)(c1ccccc1)C=C2 [Example 2, 2,2-diphenyl-5-(2-(2-methoxyethoxy)ethoxycarbonyl)-6-phenyl[2H]naphtho[1,2-b]pyran]	0.67	0.26 ΔOD/MIN	2.78 min	486 nm	348 nm	–	–
COC(=O)c1c2c(c3ccccc3c1C)OC(c1ccccc1)(c1ccccc1)C=C2 [CE3, 2,2-diphenyl-5-methoxycarbonyl-6-methyl-2H-naphtho[1,2b]pyran, reference compound]	1.17	0.23 ΔOD/MIN	7.75 min	476 nm	349 nm	–	–
COC(=O)c1c2c(c3ccccc3c1OC)OC(c1ccc(OC)cc1)(c1ccc(OC)cc1)C=C2 [CE1, 2,2-bis(4-methoxyphenyl)-5-methoxycarbonyl-6-methoxy-2H-naphtho[1,2-b]pyran, reference compound]	0.77	0.29 ΔOD/MIN	2.27 min	512 nm	353 nm	–	–
